Assay results from the OligoGym collection.
Where “and” joins values, the source holds several entries; their conditions need not be identical. Identical values can stand only once. After the bases stand the sugars from the 5' end (letter, count) and the backbone: PS all phosphorothioate, else s phosphorothioate and o phosphodiester by linkage. Methylation of C is not given here. e = 2'-O-(2-methoxyethyl) (MOE); k = constrained ethyl (cEt); d = 2'-deoxy (DNA)

Target: IRF4
Settings: ASO

Sequence | target mRNA inhibition (MM.1R, 1 µM) | target mRNA inhibition (SK-MEL-28, 4 µM) | also measured
TTCATTAGAAAGCCCT (sugars k3 d10 k3, PS) | -22% | – | –
AGCTCTAGACAGAGGC (sugars k3 d10 k3, PS) | – | 35% | –
CAGAATGAAGTTAAGG (sugars k3 d10 k3, PS) | – | 50% | –
GTTCTCTACTGTTTGT (sugars k3 d10 k3, PS) | – | 68% | –
GCTTATCAATGCCAAG (sugars k3 d10 k3, PS) | – | 40% | –
ACGAAGGGCAGTGCCT (sugars k3 d10 k3, PS) | -5% | – | –
AGATCGAGCGGTGAAA (sugars k3 d10 k3, PS) | – | 24% | –
GAGAAAACCCCCCTCT (sugars k3 d10 k3, PS) | – | 17% | –
ATGGCGCATAGGTCCT (sugars k3 d10 k3, PS) | -5% | – | –
ACAAAATGGTGTGTAA (sugars k3 d10 k3, PS) | – | 7% | –
TCCAGGTGGCTCAGCA (sugars k4 d8 k4, PS) | – | 34% | –
TAAAGAGCGCATTTCA (sugars k3 d10 k3, PS) | – | 41% | –
GTCCGCCCCGCGCGGT (sugars k3 d10 k3, PS) | 3% | – | –
CTCTATAGTGTTCCAG (sugars kkkddddddddkekek, PS) | 15% | – | –
GCGACTAACTCTCCTG (sugars k3 d10 k3, PS) | – | 70% | –
ACTGCTTGAGGTTTTC (sugars kddddddddddkekek, PS) | 22% | – | –
GTCTAAAGTCCCATCG (sugars k3 d10 k3, PS) | – | 40% | –
TTAACCATTACTTAGA (sugars k3 d10 k3, PS) | – | 45% | –
GGCACGGCTTCAGTCA (sugars k3 d10 k3, PS) | – | 75% | –
TAGCAAATGGCAAGTT (sugars k3 d10 k3, PS) | – | 17% | –
GCTCATGGACATCTGC (sugars k3 d10 k3, PS) | – | 39% | –
CAATGAACGGAAGTTT (sugars k3 d10 k3, PS) | – | 33% | –
ACAGTGACTTGCATCC (sugars k2 d9 e3 k2, PS) | 27% | – | –
TGAAGTGCTGTGTGGG (sugars k3 d10 k3, PS) | – | 57% | –
AAGGATGGGACCGCCC (sugars k3 d10 k3, PS) | – | 39% | –
TTAGGCACATCAATGT (sugars k3 d10 k3, PS) | 12% and 17% | – | –

Sequence | target mRNA inhibition (MM.1R, 1 µM) | target mRNA inhibition (SK-MEL-28, 4 µM) | also measured
TAGTATGAGAAACGGC (sugars kkdddddddddkekek, PS) | 27% | – | –
CATAACACGGTGTTGA (sugars k3 d10 k3, PS) | – | 36% | –
GAAAGAGCTGGTAGGT (sugars k3 d10 k3, PS) | – | 0% | –
ATGCCATGGACAAGTT (sugars k3 d10 k3, PS) | 18% | – | –
ACACACATTAAAGGGT (sugars k3 d10 k3, PS) | – | 43% | –
ACCTTTTTTGGCTCCC (sugars k4 d8 k4, PS) | – | 19% | –
CGCAAGGCTCGGAGCG (sugars k3 d10 k3, PS) | – | 10% | –
GCCAATTCCACTTTAT (sugars k3 d10 k3, PS) | – | 64% | –
CACATGATAAGGCACT (sugars k3 d10 k3, PS) | 21% | – | –
GGTTGGCTGGTCTTTG (sugars kddddddddddkekek, PS) | 47% | – | –
GTAGTCCTGCTTGCCC (sugars k3 d10 k3, PS) | – | 44% | –
CACTTTGTACGGGTCT (sugars k3 d10 k3, PS) | 11% | – | –
GCTGTGTGTCAAAGAG (sugars k4 d8 k4, PS) | – | 40% | –
GTACATCCTGAAGCCA (sugars k3 d10 k3, PS) | – | 26% | –
AGTACAGTCCACTCCA (sugars k3 d10 k3, PS) | 7% | – | –
CCCGGCCGATCATCAA (sugars k3 d10 k3, PS) | 23% | – | –
TACTGTTACCGATGCT (sugars k3 d10 k3, PS) | 37% and 18% | – | target mRNA inhibition (MM.1R, 0.0625 µM): -6%; target mRNA inhibition (MM.1R, 0.25 µM): -4%; target mRNA inhibition (MM.1R, 4 µM): 38%
ATGTAGTTGTGAACCT (sugars k3 d10 k3, PS) | – | 39% | –
CATTAAAGAGTGGTAC (sugars k3 d10 k3, PS) | – | -3% | –
TCATGTAAAGTCTGCT (sugars k3 d10 k3, PS) | 21% | – | –
ACTGTTACCGATGCTT (sugars kdddddddddkekeke, PS) | -2% and 17% | – | –
TCACGAGCACCTCAGA (sugars k3 d10 k3, PS) | – | 36% | –
TCTCCCACACCAGCCC (sugars k4 d8 k4, PS) | – | 25% | –
CTGAGATAAGAAGCAC (sugars k3 d10 k3, PS) | – | 37% | –
TAGTGCTGTGCAGACC (sugars k3 d10 k3, PS) | – | 32% | –
CAGTTGTAAATGAGTC (sugars kkkdddddddddkeke, PS) | 58% | – | target mRNA inhibition (MM.1R, 0.074 µM): 21%; target mRNA inhibition (MM.1R, 0.222 µM): 28%; target mRNA inhibition (MM.1R, 0.666 µM): 57%; target mRNA inhibition (MM.1R, 2 µM): 80%

Sequence | target mRNA inhibition (MM.1R, 1 µM) | target mRNA inhibition (SK-MEL-28, 4 µM) | also measured
CGGCAGTCTGCAAACA (sugars k3 d10 k3, PS) | 24% | – | –
TGATAGCTGAGCTGAT (sugars k3 d10 k3, PS) | – | 37% | –
GTAAATATCCTGTAGT (sugars k3 d10 k3, PS) | – | 33% | –
AGAACGCACGGACGAA (sugars k3 d10 k3, PS) | 1% | – | –
GTCCAGAGTCTTCAGA (sugars k3 d10 k3, PS) | – | 6% | –
CAACCATTTTCACAAG (sugars k4 d8 k4, PS) | – | 5% | –
GTTCAAAGCGCACCGC (sugars k3 d10 k3, PS) | – | 65% | –
CAGCAGGTTTTGAGAC (sugars k3 d10 k3, PS) | – | 20% | –
CAGTGATGTCAGGTTT (sugars kdddddddddkekeke, PS) | 48% | – | –
TGGCAACCATTTTCAC (sugars k4 d8 k4, PS) | – | 7% | –
GTTAATAATGCTTGCA (sugars k3 d10 k3, PS) | – | 2% | –
CAAAACCAGTACAGTC (sugars k3 d10 k3, PS) | – | 49% | –
GTTGCATAGGCATCCT (sugars k3 d10 k3, PS) | 27% | – | –
TGTTAGCTACAAAGAG (sugars k3 d10 k3, PS) | – | 47% | –
CATACAGTGTGATTAA (sugars k3 d10 k3, PS) | – | 53% | –
TACATTCACACTGCCG (sugars k3 d10 k3, PS) | – | 50% and 58% | target mRNA inhibition (MM.1R, 0.074 µM): -3%; target mRNA inhibition (MM.1R, 0.222 µM): 2%; target mRNA inhibition (MM.1R, 0.666 µM): 15%; target mRNA inhibition (MM.1R, 2 µM): 9%
TGTTAGGTGACCCAAA (sugars k3 d10 k3, PS) | 2% | – | –
CAGTTGTAAATGAGTC (sugars kkddddddddddkeke, PS) | 59% | – | target mRNA inhibition (MM.1R, 0.074 µM): 19%; target mRNA inhibition (MM.1R, 0.222 µM): 35%; target mRNA inhibition (MM.1R, 0.666 µM): 49%; target mRNA inhibition (MM.1R, 2 µM): 73%
TCCAGGAAAGGCCAAG (sugars k3 d10 k3, PS) | – | 49% | –
GATCATCAACTTCTTA (sugars k3 d10 k3, PS) | – | 47% | –
TGATAAGGCACTACTT (sugars k3 d10 k3, PS) | – | 35% | –
GTCTCAGTTTGAAGCA (sugars k3 d10 k3, PS) | – | 69% and 74% | –
AAAGAGGGTCACAGGT (sugars k3 d10 k3, PS) | – | 34% | –
AGGTAAAGGCACATTC (sugars k3 d10 k3, PS) | – | 19% | –
TTAGGATAATATACCC (sugars k3 d10 k3, PS) | – | 52% | –
CAGTGACTTGCATCCA (sugars kkddddddddddkeke, PS) | 33% | – | –

Sequence | target mRNA inhibition (MM.1R, 1 µM) | target mRNA inhibition (SK-MEL-28, 4 µM) | also measured
TTTATGTTAGCCAATT (sugars kkdddddddddekeke, PS) | 12% and -13% | – | –
ACATATCCATGTTGCA (sugars k3 d10 k3, PS) | – | 79% | –
CATTCCCTAGGTCATA (sugars k3 d10 k3, PS) | – | 54% | –
GCTCATGCCGAACTCT (sugars k3 d10 k3, PS) | – | 19% | –
CGCTGAACTGAAATCT (sugars k3 d10 k3, PS) | – | 37% | –
TTACTAATTCCATAGA (sugars k3 d10 k3, PS) | 3% | – | –
GGCCAATGATTTTGTT (sugars k3 d10 k3, PS) | – | 6% | –
GCAGGTTTCATTTCAT (sugars k3 d10 k3, PS) | – | 44% | –
GCGGAGCTTCCCGTTG (sugars k3 d10 k3, PS) | – | 33% | –
GACACTTTTAGAGAGG (sugars k2 d9 e3 k2, PS) | 25% | – | –
CAGATTGAATCCATAT (sugars k3 d10 k3, PS) | 20% | – | –
GTCTATGGGATTATAT (sugars k3 d10 k3, PS) | – | 21% | –
GGCCTGAGTTACCGCA (sugars k3 d10 k3, PS) | 8% | – | –
ACAGGACCTGGTCCAG (sugars k3 d10 k3, PS) | – | 35% | –
CTACAAGCAGTCATCA (sugars k3 d10 k3, PS) | – | 44% | –
TGTCGATGCCTTCTCG (sugars k3 d10 k3, PS) | – | 28% | –
CTGTTACCGATGCTTC (sugars k3 d10 k3, PS) | 56% and 55% | – | target mRNA inhibition (MM.1R, 0.0625 µM): 18%; target mRNA inhibition (MM.1R, 0.25 µM): 36%; target mRNA inhibition (MM.1R, 4 µM): 82%
TTTTTCTCACCATGGC (sugars k3 d10 k3, PS) | – | 74% | –
CCTCAGTTTGTGAAGC (sugars kddddddddddkekek, PS) | 26% | – | –
GCGAGTTGGCACAATT (sugars k3 d10 k3, PS) | 27% and 37% | – | –
GTGTGCTTGCCAAGCC (sugars kkdddddddddkekek, PS) | 41% and 39% | – | –
CAGTGATGTCAGGTTT (sugars k3 d10 k3, PS) | 62% | – | target mRNA inhibition (MM.1R, 0.074 µM): 22%; target mRNA inhibition (MM.1R, 0.222 µM): 39%; target mRNA inhibition (MM.1R, 0.666 µM): 62%; target mRNA inhibition (MM.1R, 2 µM): 85%
GTCACTTACACCCAGA (sugars k3 d10 k3, PS) | – | 52% | –
GTATTTCATAGCTAGT (sugars k3 d10 k3, PS) | – | 69% | –
